Here are results for seven compounds from PubChem BioAssay AID248 (DTP/NCI, 2004).

In the experiment the test system is L1210 leukemia ip in BDF1 mice, survival T/C. Put plainly: NCI In Vivo Anticancer Drug Screen. Data for tumor model L1210 Leukemia (intraperitoneal) in B6D2F1 (BDF1) mice. The conditions noted are these: endpoint: mean survival time, higher = longer survival. The method, boiled down: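 Ratio derived from survival: compound-dosed mice over vehicle-dosed mice, all bearing a transplantable tumor.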

Structures are written as SMILES. Several values for one entry are separate records, joined by “and”; a condition that tells them apart may be missing. Equal values may be shown once. Toxic doses and inconclusive results are not listed.

`C/C=C1\C(=O)O[C@@]23C=C[C@H]4C(C(=O)OC)=CO[C@@H](O[C@H]12)[C@H]43`: the T/C (dose: 5.0 mg/kg/injection, schedule: Q01DX001 (ip), vehicle: saline) was 103 % of control; the T/C (dose: 10.0 mg/kg/injection, schedule: Q01DX001 (ip), vehicle: saline) was 103 % of control; the T/C (dose: 20.0 mg/kg/injection, schedule: Q01DX001 (ip), vehicle: saline) was 106 % of control; the T/C (dose: 40.0 mg/kg/injection, schedule: Q01DX001 (ip), vehicle: saline) was 103 % of control.
`O=C(COc1ccc(Cl)c(Cl)c1)N(Cc1ccccc1)Cc1ccc[n+](Cc2cccc(Cl)c2S(=O)(=O)F)c1`: the T/C reads like this: (dose: 25.0 mg/kg/injection, schedule: Q04DX003 (ip), vehicle: saline with Tween-80) 106 % of control; (dose: 50.0 mg/kg/injection, schedule: Q04DX003 (ip), vehicle: saline with Tween-80) 96 % of control.
As to `COc1cc(OC)c(NC(=S)Nc2ccccc2C(F)(F)F)cc1Cl`, the T/C (dose: 100.0 mg/kg/injection, schedule: Q04DX002 (ip), vehicle: Klucel (hydroxypropylcellulose) (HPC)) was 106 % of control; the T/C (dose: 200.0 mg/kg/injection, schedule: Q01DX009 (ip), vehicle: Klucel (hydroxypropylcellulose) (HPC)) is 88 % of control; the T/C (dose: 200.0 mg/kg/injection, schedule: Q04DX002 (ip), vehicle: Klucel (hydroxypropylcellulose) (HPC)) is 92 % of control; the T/C (dose: 400.0 mg/kg/injection, schedule: Q01DX009 (ip), vehicle: Klucel (hydroxypropylcellulose) (HPC)) is 95 % of control; the T/C (dose: 400.0 mg/kg/injection, schedule: Q04DX002 (ip), vehicle: Klucel (hydroxypropylcellulose) (HPC)) is 95 % of control.
In the case of `CC(=O)N(C(C)=O)N(C(C)=O)C(=O)c1ccccn1`, the T/C by setting is: (dose: 100.0 mg/kg/injection, schedule: Q01DX001 (ip), vehicle: water) 106 % of control; (dose: 200.0 mg/kg/injection, schedule: Q01DX001 (ip), vehicle: water) 101 % of control; (dose: 400.0 mg/kg/injection, schedule: Q01DX001 (ip), vehicle: water) 106 % of control.
For the compound `CC(C)(C)C1CCCC(NC(=O)N(CCCl)N=O)C1` (stereo unspecified), the T/C by setting is: (dose: 6.0 mg/kg/injection, schedule: Q01DX001 (ip), vehicle: other) 111 % of control; (dose: 12.0 mg/kg/injection, schedule: Q01DX001 (ip), vehicle: other) 108 % of control; (dose: 46.0 mg/kg/injection, schedule: Q01DX001 (ip), vehicle: other) 153 % of control; (dose: 93.0 mg/kg/injection, schedule: Q01DX001 (ip), vehicle: other) 187 % of control; (dose: 187.0 mg/kg/injection, schedule: Q01DX001 (ip), vehicle: other) 238 % of control; (dose: 250.0 mg/kg/injection, schedule: Q01DX001 (ip), vehicle: other) 218 % of control. Besides, the T/C (dose: 375.0 mg/kg/injection, schedule: Q01DX001 (ip), vehicle: other) is 164 % of control and the T/C (dose: 500.0 mg/kg/injection, schedule: Q01DX001 (ip), vehicle: other) is 118 % of control.
Consider `CCOC(=O)C(C(=O)OCC)c1cc(Cl)nnc1Cl`, for which the T/C is, setting by setting: (dose: 100.0 mg/kg/injection, schedule: Q04DX002 (ip), vehicle: saline) 91 % of control; (dose: 200.0 mg/kg/injection, schedule: Q04DX002 (ip), vehicle: saline) 91 % of control.
With `CSc1ccc(NC(=O)Oc2cc3ccccc3cc2C(=O)Nc2ccccc2)cc1`, the T/C is 97 % of control and 99 % of control (dose: 50.0 mg/kg/injection, schedule: Q01DX009 (ip), vehicle: saline with Tween-80); 95 % of control (dose: 100.0 mg/kg/injection, schedule: Q01DX001 (ip), vehicle: saline with Tween-80); 96 % of control and 86 % of control (dose: 100.0 mg/kg/injection, schedule: Q01DX009 (ip), vehicle: saline with Tween-80); 100 % of control and 92 % of control (dose: 100.0 mg/kg/injection, schedule: Q04DX002 (ip), vehicle: saline with Tween-80); 87 % of control (dose: 100.0 mg/kg/injection, schedule: Q04DX003 (ip), vehicle: saline with Tween-80); 87 % of control (dose: 200.0 mg/kg/injection, schedule: Q01DX001 (ip), vehicle: saline with Tween-80). The T/C was 96 % of control and 90 % of control (dose: 200.0 mg/kg/injection, schedule: Q01DX009 (ip), vehicle: saline with Tween-80); 98 % of control and 91 % of control (dose: 200.0 mg/kg/injection, schedule: Q04DX002 (ip), vehicle: saline with Tween-80); 94 % of control (dose: 200.0 mg/kg/injection, schedule: Q04DX003 (ip), vehicle: saline with Tween-80); 88 % of control (dose: 400.0 mg/kg/injection, schedule: Q01DX001 (ip), vehicle: saline with Tween-80); 95 % of control (dose: 400.0 mg/kg/injection, schedule: Q04DX002 (ip), vehicle: saline with Tween-80); 91 % of control (dose: 400.0 mg/kg/injection, schedule: Q04DX003 (ip), vehicle: saline with Tween-80).
